For 25 compounds, EC50 results are on record in patent US9828381B2, “Substituted pyrazolopyrimidines and method of use” (AbbVie Deutschland GmbH & Co. KG, priority 2015, dated 2017).

Chain of GABA-B receptor (Q9Z0U4 17-960): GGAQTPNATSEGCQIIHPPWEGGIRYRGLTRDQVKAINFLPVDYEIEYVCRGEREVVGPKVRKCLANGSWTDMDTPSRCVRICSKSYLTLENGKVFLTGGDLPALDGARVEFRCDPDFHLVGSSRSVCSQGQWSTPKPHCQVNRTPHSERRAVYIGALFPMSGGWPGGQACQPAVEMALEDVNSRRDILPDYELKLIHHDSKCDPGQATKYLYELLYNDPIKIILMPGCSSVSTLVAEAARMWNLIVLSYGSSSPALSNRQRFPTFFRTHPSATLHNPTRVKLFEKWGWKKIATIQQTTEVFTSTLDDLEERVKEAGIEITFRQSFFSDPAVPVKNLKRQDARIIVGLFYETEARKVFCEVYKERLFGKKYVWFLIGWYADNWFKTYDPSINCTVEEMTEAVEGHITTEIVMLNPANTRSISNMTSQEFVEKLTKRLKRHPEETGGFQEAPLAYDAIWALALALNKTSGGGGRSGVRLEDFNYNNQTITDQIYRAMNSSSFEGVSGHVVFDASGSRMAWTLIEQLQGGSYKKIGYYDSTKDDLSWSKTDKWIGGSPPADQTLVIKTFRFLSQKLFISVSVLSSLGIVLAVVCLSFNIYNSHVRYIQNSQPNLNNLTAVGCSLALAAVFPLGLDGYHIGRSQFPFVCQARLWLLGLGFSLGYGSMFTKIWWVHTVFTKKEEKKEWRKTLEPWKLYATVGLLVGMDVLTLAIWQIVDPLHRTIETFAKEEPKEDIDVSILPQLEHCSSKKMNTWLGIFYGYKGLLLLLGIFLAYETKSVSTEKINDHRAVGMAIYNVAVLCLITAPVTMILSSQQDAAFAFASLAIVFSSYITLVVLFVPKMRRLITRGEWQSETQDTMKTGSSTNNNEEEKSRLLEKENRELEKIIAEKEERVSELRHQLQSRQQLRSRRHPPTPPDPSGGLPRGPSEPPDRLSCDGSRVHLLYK
Chain of GABA-B receptor (O88871 41-940): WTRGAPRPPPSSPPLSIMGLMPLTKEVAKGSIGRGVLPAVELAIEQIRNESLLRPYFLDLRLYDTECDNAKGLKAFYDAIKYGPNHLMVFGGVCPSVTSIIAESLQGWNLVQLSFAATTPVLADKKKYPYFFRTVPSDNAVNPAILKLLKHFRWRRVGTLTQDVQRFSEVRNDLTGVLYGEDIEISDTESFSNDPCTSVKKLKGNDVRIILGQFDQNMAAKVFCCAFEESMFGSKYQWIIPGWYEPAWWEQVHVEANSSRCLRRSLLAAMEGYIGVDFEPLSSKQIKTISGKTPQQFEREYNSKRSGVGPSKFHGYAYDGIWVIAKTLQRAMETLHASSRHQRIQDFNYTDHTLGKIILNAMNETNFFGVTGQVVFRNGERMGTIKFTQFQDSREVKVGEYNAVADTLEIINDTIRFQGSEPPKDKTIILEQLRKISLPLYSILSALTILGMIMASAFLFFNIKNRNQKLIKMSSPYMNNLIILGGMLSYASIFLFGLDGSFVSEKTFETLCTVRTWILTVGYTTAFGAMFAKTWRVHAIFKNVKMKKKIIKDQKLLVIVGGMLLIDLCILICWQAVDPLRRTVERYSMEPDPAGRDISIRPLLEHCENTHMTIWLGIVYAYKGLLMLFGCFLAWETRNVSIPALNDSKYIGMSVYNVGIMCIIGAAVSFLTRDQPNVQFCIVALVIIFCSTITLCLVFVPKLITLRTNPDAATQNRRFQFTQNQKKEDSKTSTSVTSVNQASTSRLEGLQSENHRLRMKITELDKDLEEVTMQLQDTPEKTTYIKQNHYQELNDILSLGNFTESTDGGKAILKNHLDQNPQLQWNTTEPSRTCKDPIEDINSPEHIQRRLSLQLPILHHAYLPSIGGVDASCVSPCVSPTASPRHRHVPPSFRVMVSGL

The assay concerns the target GABA-B receptor (Rattus norvegicus (Rat), UniProt O88871+Q9Z0U4). The experiment in a line: [35S]GTPgS binding assay, rat cortical membranes, in presence of EC25 GABA. It is filed as biochemical. To be noted: rat brain cortex membranes; in presence of 1 μM GABA (EC25); positive allosteric modulation. As for the experimental part:
Preparation of Rat Brain Membranes for Native Receptor Assays
Membranes from rat brain cortex were prepared as described in detail by Olpe et al. and stored at concentrations of 1.66 mg/mL protein at −80° C. until required. (Olpe, H.-R, et al. Eur J Pharmacol 1990; 187: 27-38).
[^35S] GTPgS Binding Assay
The composition of the assay mixtures [in a final volume of 200 μL in 96-well U-bottom plates (Greiner) was as follows: 50 mM Tris-HCl buffer, pH 7.7, 10 mM MgCl2, 0.2 mM EGTA, 2 mM CaCl2, 100 mM NaCl, 20 µM guanosine 5′-diphosphate (Sigma), 0.3 nM [^35S]GTPgS (1250 Ci/mmol (PerkinElmer)), and the test compounds at increasing concentrations (from 10 nM up to […]), […] of rat cortical membranes, and a concentration of […], that has been observed in previous experiments to correspond to the EC25, a concentration that gives 25% of the maximal response of GABA. The samples were incubated at room temperature for 60 minutes on a shaker. The incubation was stopped by rapid vacuum filtration over glass-fiber filter plates (UniFilter-96 well, GF/B membrane plates, PerkinElmer) using a 96-well plate harvester (TOMTEK© Harvester). The UniFilter plate was washed five times with ice-cold wash buffer (50 mM Tris-HCl buffer, pH 7.7, 10 mM MgCl2, and 100 mM NaCl. After filtration the plate was dried for 90 minutes at 55° C. The plates were closed on the bottom with black sealing membranes, and liquid scintillation cocktail (35 μL, Betaplate Scint, PerkinElmer) was added to each well. After sealing the top of the plate, an additional incubation step of 90 minutes at room temperature followed before measuring the plate. The amount of membrane-bound [^35S]GTPgS was measured using a 96-well plate reader (Microbeta®, PerkinElmer). Nonspecific binding was measured in the presence of unlabeled 10 μM of GTPgS (Millipore) and without GABA. Basal binding was measured in the absence of 1 μM GABA, and maximal binding was measured in the presence of GABA using 1 mM GABA concentrations.
Data analysis. The concentration-response curves of compounds of the present disclosure in the presence of EC25 of GABA-B receptor agonist were generated using the GraphPad Prism® program (GraphPad Software, San Diego, Calif.). Data was normalized using basal binding as 0% and maximal binding as 100%. The curves were fitted by nonlinear regression allowing determination of EC50 values from sigmoidal dose-response curves. Each curve was performed using triplicate sample per date point and 10 concentrations.
For the compound `Cc1cc(N2CCCCC2CCO)n2nc(C(c3ccc(Cl)cc3)C(C)C)cc2n1` (stereo not shown) [Example 4-1, 2-(1-{2-[1-(4-chlorophenyl)-2-methylpropyl]-5-methylpyrazolo[1,5-a]pyrimidin-7-yl}piperidin-2-yl)ethanol], the EC50 was 5 nM.
With `Cc1cc(N2CCCC(F)(F)C2)n2nc(C(c3ccc(Cl)cc3)C(C)C)cc2n1` (stereo not shown) [Example 4-2, 2-[1-(4-chlorophenyl)-2-methylpropyl]-7-(3,3-difluoropiperidin-1-yl)-5-methylpyrazolo[1,5-a]pyrimidine], the EC50 worked out at 9 nM.
For the compound `CCCC(c1ccc(Cl)cc1)c1cc2nc(C)cc(N3CCCCC3CCO)n2n1` (stereo not shown) [Example 5-1, 2-(1-{2-[1-(4-chlorophenyl)butyl]-5-methylpyrazolo[1,5-a]pyrimidin-7-yl}piperidin-2-yl)ethanol], the EC50 worked out at 3 nM.
For `CCCC(c1ccc(Cl)cc1)c1cc2nc(C)cc(N3CCCC(F)(F)C3)n2n1` (stereo not shown) [Example 5-2, 2-[1-(4-chlorophenyl)butyl]-7-(3,3-difluoropiperidin-1-yl)-5-methylpyrazolo[1,5-a]pyrimidine], the EC50 amounted to 7 nM.
In the case of `Cc1cc(N2CCCCC2CCO)n2nc(Cc3cccc(C(F)(F)F)c3)cc2n1` (stereo not shown) [Example 6-1, 2-(1-{5-methyl-2-[3-(trifluoromethyl)benzyl]pyrazolo[1,5-a]pyrimidin-7-yl}piperidin-2-yl)ethanol], the EC50 worked out at 1820 nM.
As for `Cc1cc(N2CCCCC2CCO)n2nc(CC34CC5CC(CC(C5)C3)C4)cc2n1` (stereo not shown) [Example 7-1, 2-{1-[5-methyl-2-(tricyclo[3.3.1.1^3′]dec-1-ylmethyl)pyrazolo[1,5-a]pyrimidin-7-yl]piperidin-2-yl}ethanol], the concentration for a half-maximal effect (EC50) came to 1080 nM.
Then `Cc1cc(N2CC[C@H]2C(N)=O)n2nc(C(C)c3ccc(C(F)(F)F)cc3)cc2n1` (stereo partly drawn) [Example 8-1, (2S)-1-(5-methyl-2-{1-[4-(trifluoromethyl)phenyl]ethyl}pyrazolo[1,5-a]pyrimidin-7-yl)azetidine-2-carboxamide], with > 10000 nM.
Take `Cc1cc(N2CCCCC2CCO)n2nc(C(C)c3ccc(C(F)(F)F)cc3)cc2n1` (stereo not shown) [Example 8-2, 2-[1-(5-methyl-2-{1-[4-(trifluoromethyl)phenyl]ethyl}pyrazolo[1,5-a]pyrimidin-7-yl)piperidin-2-yl]ethanol]: the EC50 was 87 nM.
On to `Cc1cc(N2CCC3(COC3)C2)n2nc(C(C)c3ccc(C(F)(F)F)cc3)cc2n1` (stereo not shown) [Example 8-3, 5-methyl-7-(2-oxa-6-azaspiro[3.4]oct-6-yl)-2-{1-[4-(trifluoromethyl)phenyl]ethyl}pyrazolo[1,5-a]pyrimidine], for which the concentration for a half-maximal effect (EC50) amounted to 420 nM.
As for `Cc1cc(N2CC3(CCOCC3)C2)n2nc(C(C)c3ccc(C(F)(F)F)cc3)cc2n1` (stereo not shown) [Example 8-4, 5-methyl-7-(7-oxa-2-azaspiro[3.5]non-2-yl)-2-{1-[4-(trifluoromethyl)phenyl]ethyl}pyrazolo[1,5-a]pyrimidine], the half-maximal effective concentration (EC50) was 827 nM.
For `Cc1cc(N2CCC[C@@H](O)C2)n2nc(C(C)c3ccc(C(F)(F)F)cc3)cc2n1` (stereo partly drawn) [Example 8-5, (3R)-1-(5-methyl-2-{1-[4-(trifluoromethyl)phenyl]ethyl}pyrazolo[1,5-a]pyrimidin-7-yl)piperidin-3-ol] the value was 365 nM; for `Cc1cc(NC2CC(F)C2)n2nc(C(C)c3ccc(C(F)(F)F)cc3)cc2n1` (stereo not shown) [Example 8-6, N-(3-fluorocyclobutyl)-5-methyl-2-{1-[4-(trifluoromethyl)phenyl]ethyl}pyrazolo[1,5-a]pyrimidin-7-amine], 509 nM; for `CC(=O)N[C@H]1CCN(c2cc(C)nc3cc(C(C)c4ccc(C(F)(F)F)cc4)nn23)C1` (stereo partly drawn) [Example 8-7, N-[(3S)-1-(5-methyl-2-{1-[4-(trifluoromethyl)phenyl]ethyl}pyrazolo[1,5-a]pyrimidin-7-yl)pyrrolidin-3-yl]acetamide], 2000 nM.
Then `Cc1cc(NC2(C)CC2)n2nc(C(C)c3ccc(C(F)(F)F)cc3)cc2n1` (stereo not shown) [Example 8-8, 5-methyl-N-(1-methylcyclopropyl)-2-{1-[4-(trifluoromethyl)phenyl]ethyl}pyrazolo[1,5-a]pyrimidin-7-amine], with 746 nM.
For `Cc1cc(N2CCCCC2CO)n2nc(C(C)c3ccc(C(F)(F)F)cc3)cc2n1` (stereo not shown) [Example 8-9, [1-(5-methyl-2-{1-[4-(trifluoromethyl)phenyl]ethyl}pyrazolo[1,5-a]pyrimidin-7-yl)piperidin-2-yl]methanol] the value was 344 nM.
With `Cc1cc(N2CC[C@H]2C(=O)O)n2nc(C(C)c3ccc(C(F)(F)F)cc3)cc2n1` (stereo partly drawn) [Example 8-10, (2S)-1-(5-methyl-2-{1-[4-(trifluoromethyl)phenyl]ethyl}pyrazolo[1,5-a]pyrimidin-7-yl)azetidine-2-carboxylic acid], the EC50 is > 10000 nM.
As to `Cc1cc(N2CCC(F)CC2)n2nc(C(C)c3ccc(C(F)(F)F)cc3)cc2n1` (stereo not shown) [Example 8-11, 7-(4-fluoropiperidin-1-yl)-5-methyl-2-{1-[4-(trifluoromethyl)phenyl]ethyl}pyrazolo[1,5-a]pyrimidine], the EC50 worked out at 378 nM.
On to `Cc1cc(N2CCCC(F)C2)n2nc(C(C)c3ccc(C(F)(F)F)cc3)cc2n1` (stereo not shown) [Example 8-12, 7-(3-fluoropiperidin-1-yl)-5-methyl-2-{1-[4-(trifluoromethyl)phenyl]ethyl}pyrazolo[1,5-a]pyrimidine], for which the EC50 turned out to be 370 nM.
As for `Cc1cc(N2CCNC(=O)C2CCO)n2nc(C(C)c3ccc(C(F)(F)F)cc3)cc2n1` (stereo not shown) [Example 8-13, 3-(2-hydroxyethyl)-4-(5-methyl-2-{1-[4-(trifluoromethyl)phenyl]ethyl}pyrazolo[1,5-a]pyrimidin-7-yl)piperazin-2-one], the EC50 was 2550 nM.
For `Cc1cc(NCC2CC(F)(F)C2)n2nc(C(C)c3ccc(C(F)(F)F)cc3)cc2n1` (stereo not shown) [Example 8-14, N-[(3,3-difluorocyclobutyl)methyl]-5-methyl-2-{1-[4-(trifluoromethyl)phenyl]ethyl}pyrazolo[1,5-a]pyrimidin-7-amine], the EC50 stood at 593 nM.
Regarding `Cc1cc(N2CCC(F)(F)C2)n2nc(C(C)c3ccc(C(F)(F)F)cc3)cc2n1` (stereo not shown) [Example 8-15, 7-(3,3-difluoropyrrolidin-1-yl)-5-methyl-2-{1-[4-(trifluoromethyl)phenyl]ethyl}pyrazolo[1,5-a]pyrimidine], the concentration giving a half-maximal response (EC50) was 570 nM.
Then `CC(=O)N[C@@H]1CCN(c2cc(C)nc3cc(C(C)c4ccc(C(F)(F)F)cc4)nn23)C1` (stereo partly drawn) [Example 8-16, N-[(3R)-1-(5-methyl-2-{1-[4-(trifluoromethyl)phenyl]ethyl}pyrazolo[1,5-a]pyrimidin-7-yl)pyrrolidin-3-yl]acetamide], with 2180 nM.
For `Cc1cc(N2CCCC(F)(F)C2)n2nc(C(C)c3ccc(C(F)(F)F)cc3)cc2n1` (stereo not shown) [Example 8-17, 7-(3,3-difluoropiperidin-1-yl)-5-methyl-2-{1-[4-(trifluoromethyl)phenyl]ethyl}pyrazolo[1,5-a]pyrimidine] the value was 760 nM.
With `Cc1cc(N2CCCCC2=O)n2nc(C(C)c3ccc(C(F)(F)F)cc3)cc2n1` (stereo not shown) [Example 8-18, 1-(5-methyl-2-{1-[4-(trifluoromethyl)phenyl]ethyl}pyrazolo[1,5-a]pyrimidin-7-yl)piperidin-2-one], the EC50 is 746 nM.
For `Cc1cc(NC(C)(C)C)n2nc(C(C)c3ccc(C(F)(F)F)cc3)cc2n1` (stereo not shown) [Example 8-19, N-tert-butyl-5-methyl-2-{1-[4-(trifluoromethyl)phenyl]ethyl}pyrazolo[1,5-a]pyrimidin-7-amine], the EC50 is 274 nM.
